# Source: US12295936B2, “Immunomodulating urea azalides” (Zoetis Services LLC, priority 2020, dated 2025)
# Like-named read-outs stand apart in the source and are kept apart here.
# How the values were obtained:
# [1] = test system: TNF-α; experiment: LPS-stimulated whole bovine blood assay, MSD cytokine detection; type: cell-based; conditions: Bos taurus, read-out: TNF-α (IC50 μM)
# [2] = test system: IL-1β; experiment: as above; type: cell-based; conditions: overstimulation of IL-1β, LPS-stimulated bovine whole blood
# [3] = test system: IL-6; experiment: as above; type: cell-based; conditions: read-out: IL-6 (IC50 μM)
# Text: In order to correlate RNA sequencing data to cytokine changes the whole blood assay was utilized. […] The enhancement result represents an overall stimulation of cytokine levels due to cellular stress or potential toxicity with increasing concentrations of the compound, representing a typical bell shape response curve for immunomodulatory activity.
# [4] = test system: P. multocida 46572; experiment: In vivo mouse lung infection challenge model (murine efficacy); design: species or system CD-1 female mice; conditions: 20 mg/kg subcutaneous, P. multocida challenge; harmonized against the comparative vehicle survival rate
# Experimental: The challenge organism was P. multocida 46572. Target challenge concentration was 5×10^2 CFU/mouse. Isolated colonies from overnight growth (37° C. with 5% CO2) on trypticase soy agar (TSA II) blood plates were transferred to room temperature Brain Heart Infusion Broth (BHIB). The broth culture was incubated 3.5-4 hours to approximately mid-log phase of growth, as measured by forward light scatter at 600 nm (OD600, 0.200). The culture was centrifuged to collect the bacterial pellet. The pellet was re-suspended in BHIB and adjusted to provide an approximate concentration of 2.7 log^10 colony forming units (CFU) in 0.04 mL at the highest concentration. The challenge inoculum concentration was confirmed by serial dilutions of the inoculum for CFU enumeration. On Day −5, CD-1 female mice were received. Mice were given standard rodent diet and water ad libitum. On Day 0, bacterial inoculum (0.04 mL) was administered to each mouse (n=36) intranasally. Compounds of the invention were dosed at 20 mg/kg (0.1 mL) in a buffered (˜pH 5.4) propylene glycol, monothioglycerol and water solution by subcutaneous injection. Animals were observed from Days 1-10. The study was terminated on Day 10. In addition, some treatment groups were sampled at 6, 24, and 48 hours post bacterial challenge for RNA sequence analysis of lung tissue.
# The murine efficacy model (P. multocida challenge) was optimized, and the treatment group size was powered to be able to observe statistically significant improvement of survival to expected ranges for immunomodulatory compounds. The experimental design was a randomized complete block design. Mice were individually identified and treatment groups comingled within a cage, with every treatment group equally represented across cages. Mortality was the primary variable. Mortality data was analyzed using a generalized mixed model with fixed effect of treatment and random effect of block. Survival time was also analyzed using the SAS PHREG (survival analysis) procedure to examine whether there were significant differences between treatment groups and the control group. Numerous compounds of the invention and M9 (positive control) were tested in this model at a dose of 20 mg/kg. Typical percent survival for no treatment control is in the range of 0-20% based on study to study variation in challenge inoculum and rate of infection. […] Mouse survival for M9 was about 90-100%, further supporting its antibacterial properties against the bacterial strain (Table 3). Survival values presented are harmonized against the comparative vehicle survival rate.
# [5] = test system: BRD pathogens, M. haemolytica and P. multocida; experiment: MIC screening panel of BRD pathogens (antibacterial / non-antibacterial); conditions: read-out: antibacterial / non-antibacterial (MIC for the BRD pathogens)
# [6] = LPS-stimulated bovine whole blood
# [7] = Bos taurus, LPS-stimulated bovine whole blood
Structure (SMILES),IC50 [1],IL-1β OS of LPS [2],IC50 ([3]; Bos taurus),Mouse Murine Percent Survival [4],"IC50 [1, 6]",MIC [5],"IC50 [3, 7]","IC50 [3, 6]"
"CCCNC[C@]1(O)[C@H](C)O[C@@H](O[C@H]2[C@H](C)[C@@H](O[C@@H]3O[C@H](C)C[C@H](N(C)C(=O)Nc4cnn(C)c4)[C@H]3O)[C@](C)(O)C[C@@H](C)CN[C@H](C)[C@@H](O)[C@](C)(O)[C@@H](CC)OC(=O)[C@@H]2C)C[C@@]1(C)OC [Example H-74, 1-((2S,3R,4S,6R)-2-(((2R,3S,4R,5R,8R,10R,11R,12S,13S,14R)-2-ethyl-3,4,10-trihydroxy-13-(((2R,4R,5S,6S)-5-hydroxy-4-methoxy-4,6-dimethyl-5-((propylamino)methyl)tetrahydro-2H-pyran-2-yl)oxy)-3,5,8,10,12,14-hexamethyl-15-oxo-1-oxa-6-azacyclopentadecan-11-yl)oxy)-3-hydroxy-6-methyltetrahydro-2H-pyran-4-yl)-1-methyl-3-(1-methyl-1H-pyrazol-4-yl)urea]",~600 µM,>500 µM,> 500 µM,11%,,,,
"CCCNC(=O)N(C)[C@H]1C[C@@H](C)O[C@@H](O[C@@H]2[C@@H](C)[C@H](O[C@H]3C[C@@](C)(OC)[C@](O)(CNc4ccc(C(F)(F)F)cc4)[C@H](C)O3)[C@@H](C)C(=O)O[C@H](CC)[C@@](C)(O)[C@H](O)[C@@H](C)NC[C@H](C)C[C@@]2(C)O)[C@@H]1O [Example H-95, 1-((2S,3R,4S,6R)-2-(((2R,3S,4R,5R,8R,10R,11R,12S,13S,14R)-2-ethyl-3,4,10-trihydroxy-13-(((2R,4R,5S,6S)-5-hydroxy-4-methoxy-4,6-dimethyl-5-(((4-(trifluoromethyl)phenyl)amino)methyl)tetrahydro-2H-pyran-2-yl)oxy)-3,5,8,10,12,14-hexamethyl-15-oxo-1-oxa-6-azacyclopentadecan-11-yl)oxy)-3-hydroxy-6-methyltetrahydro-2H-pyran-4-yl)-1-methyl-3-propylurea]",,13 µM,,39%,10 µM,> 64 µg/mL,,
"CCCNC[C@]1(O)[C@H](C)O[C@@H](O[C@H]2[C@H](C)[C@@H](O[C@@H]3O[C@H](C)C[C@H](N(C)C(=O)Nc4ccc(F)cc4)[C@H]3O)[C@](C)(O)C[C@@H](C)CN[C@H](C)[C@@H](O)[C@](C)(O)[C@@H](CC)OC(=O)[C@@H]2C)C[C@@]1(C)OC [Example H-83, 1-((2S,3R,4S,6R)-2-(((2R,3S,4R,5R,8R,10R,11R,12S,13S,14R)-2-ethyl-3,4,10-trihydroxy-13-(((2R,4R,5S,6S)-5-hydroxy-4-methoxy-4,6-dimethyl-5-((propylamino)methyl)tetrahydro-2H-pyran-2-yl)oxy)-3,5,8,10,12,14-hexamethyl-15-oxo-1-oxa-6-azacyclopentadecan-11-yl)oxy)-3-hydroxy-6-methyltetrahydro-2H-pyran-4-yl)-3-(4-fluorophenyl)-1-methylurea]",,80 µM,,11%,350 µM,> 64 µg/mL,,
"CC[C@H]1OC(=O)[C@H](C)[C@@H](O[C@H]2C[C@@](C)(OC)[C@](O)(CN3CCN(C)CC3)[C@H](C)O2)[C@H](C)[C@@H](O[C@@H]2O[C@H](C)C[C@H](N(C)C(=O)Nc3ccccc3)[C@H]2O)[C@](C)(O)C[C@@H](C)CN[C@H](C)[C@@H](O)[C@]1(C)O [Example J-7, 1-((2S,3R,4S,6R)-2-(((2R,3S,4R,5R,8R,10R,11R,12S,13S,14R)-2-ethyl-3,4,10-trihydroxy-13-(((2R,4R,5S,6S)-5-hydroxy-4-methoxy-4,6-dimethyl-5-((4-methylpiperazin-1-yl)methyl)tetrahydro-2H-pyran-2-yl)oxy)-3,5,8,10,12,14-hexamethyl-15-oxo-1-oxa-6-azacyclopentadecan-11-yl)oxy)-3-hydroxy-6-methyltetrahydro-2H-pyran-4-yl)-1-methyl-3-phenylurea]",,200 µM,,39%,200 µM,,> 500 µM,
"CC[C@H]1OC(=O)[C@H](C)[C@@H](O[C@H]2C[C@@](C)(OC)[C@](O)(CN3CCN(C)CC3)[C@H](C)O2)[C@H](C)[C@@H](O[C@@H]2O[C@H](C)C[C@H](N(C)C(=O)NC(C)(C)C)[C@H]2O)[C@](C)(O)C[C@@H](C)CN[C@H](C)[C@@H](O)[C@]1(C)O [Example J-3, 3-(tert-butyl)-1-((2S,3R,4S,6R)-2-(((2R,3S,4R,5R,8R,10R,11R,12S,13S,14R)-2-ethyl-3,4,10-trihydroxy-13-(((2R,4R,5S,6S)-5-hydroxy-4-methoxy-4,6-dimethyl-5-((4-methylpiperazin-1-yl)methyl)tetrahydro-2H-pyran-2-yl)oxy)-3,5,8,10,12,14-hexamethyl-15-oxo-1-oxa-6-azacyclopentadecan-11-yl)oxy)-3-hydroxy-6-methyltetrahydro-2H-pyran-4-yl)-1-methylurea]",,200 µM,,25%,200 µM,,225 µM,
"CC[C@H]1OC(=O)[C@H](C)[C@@H](O[C@H]2C[C@@](C)(OC)[C@@H](O)[C@H](C)O2)[C@H](C)[C@@H](O[C@@H]2O[C@H](C)C[C@H](N(C)C(=O)N(C)c3ccc(C(F)(F)F)cc3)[C@H]2O)[C@](C)(O)C[C@@H](C)CN[C@H](C)[C@@H](O)[C@]1(C)O [Example B-2, 1-((2S,3R,4S,6R)-2-(((2R,3S,4R,5R,8R,10R,11R,12S,13S,4R)-2-ethyl-3,4,10-trihydroxy-13-(((2R,4R,5S,6S)-5-hydroxy-4-methoxy-4,6-dimethyltetrahydro-2H-pyran-2-yl)oxy)-3,5,8,10,12,14-hexamethyl-15-oxo-1-oxa-6-azacyclopentadecan-11-yl)oxy)-3-hydroxy-6-methyltetrahydro-2H-pyran-4-yl)-1,3-dimethyl-3-(4-(trifluoromethyl)phenyl)urea]",,40 µM,,28%,,,,52 µM
"CC[C@H]1OC(=O)[C@H](C)[C@@H](O[C@H]2C[C@@](C)(OC)[C@@H](O)[C@H](C)O2)[C@H](C)[C@@H](O[C@@H]2O[C@H](C)C[C@H](N(C)C(=O)N(C)c3ccc(C(F)(F)F)cc3)[C@H]2O)[C@](C)(O)C[C@@H](C)CN(C)[C@H](C)[C@@H](O)[C@]1(C)O [Example B-6, 1-((2S,3R,4S,6R)-2-(((2R,3S,4R,5R,8R,10R,11R,12S,13S,14R)-2-ethyl-3,4,10-trihydroxy-13-(((2R,4R,5S,6S)-5-hydroxy-4-methoxy-4,6-dimethyltetrahydro-2H-pyran-2-yl)oxy)-3,5,6,8,10,12,14-heptamethyl-15-oxo-1-oxa-6-azacyclopentadecan-11-yl)oxy)-3-hydroxy-6-methyltetrahydro-2H-pyran-4-yl)-1,3-dimethyl-3-(4-(trifluoromethyl)phenyl)urea]",,40 µM,,1%,12 µM,,41 µM,
"CCCNC[C@]1(O)[C@H](C)O[C@@H](O[C@H]2[C@H](C)[C@@H](O[C@@H]3O[C@H](C)C[C@H](N(C)C(=O)Nc4ccc(OC)cc4)[C@H]3O)[C@](C)(O)C[C@@H](C)CN[C@H](C)[C@@H](O)[C@](C)(O)[C@@H](CC)OC(=O)[C@@H]2C)C[C@@]1(C)OC [Example H-87, 1-((2S,3R,4S,6R)-2-(((2R,3S,4R,5R,8R,10R,11R,12S,13S,14R)-2-ethyl-3,4,10-trihydroxy-13-(((2R,4R,5S,6S)-5-hydroxy-4-methoxy-4,6-dimethyl-5-((propylamino)methyl)tetrahydro-2H-pyran-2-yl)oxy)-3,5,8,10,12,14-hexamethyl-15-oxo-1-oxa-6-azacyclopentadecan-11-yl)oxy)-3-hydroxy-6-methyltetrahydro-2H-pyran-4-yl)-3-(4-methoxyphenyl)-1-methylurea]",,500 µM,,14%,100 µM,,,
